# Earlier results, collected in patent US7488755B2, “Derivatives of glycinergic R(+)-2-amino-3-hydroxypropanoic acid” (Prestwick Pharmaceuticals, Inc., priority 2002, dated 2009).
# Experiments:
# schizophrenia patients = settings: 2 g/day, double-blind clinical trial, also in patients with little response to conventional antipsychotics
# schizophrenic patients = settings: very high oral doses (>30 g/day)
SMILES,efficacy in the treatment of schizophrenia (schizophrenia patients),effect on negative symptoms in schizophrenic patients (schizophrenic patients)
N[C@H](CO)C(=O)O [D-serine],effective in the treatment of schizophrenia,–
NCC(=O)O [glycine],–,improvement in the negative symptoms
